# Laboratory results taken from patent US9115093B2, “Substituted bicyclic dihydropyrimidinones and their use as inhibitors of neutrophil elastase activity” (Boehringer Ingelheim International GmbH, priority 2013, dated 2015).
# How the values were obtained:
# Assay type in all cases: in vitro ADME
# [1] = Metabolic stability with human liver microsomes; conditions: pooled human liver microsomes, 37° C., 1 mg/ml protein, NADPH; for half-life at 1 nM: pH 7.6, read-out: t1/2 INVITRO
# Experimental: Assay for the Determination of Metabolic Stability with Human Liver Microsomes
# The metabolic degradation of the test compound is assayed at 37° C. with pooled human liver microsomes. The final incubation volume of […] per time point contains TRIS buffer pH 7.6 (0.1 M), magnesium chloride (5 mM), microsomal protein (1 mg/ml) and the test compound at a final concentration of […]. Following a short preincubation period at 37° C., the reactions are initiated by addition of beta-nicotinamide adenine dinucleotide phosphate, reduced form (NADPH, 1 mM) and terminated by transfering an aliquot into acetonitrile after different time points. Additionally, the NADPH-independent degradation is monitored in incubations without NADPH, terminated at the last time point. The rol remaining test compound after NADPH independent incubation is reflected by the parameter c(control) (metabolic stability). The quenched incubations are pelleted by centrifugation (10′000 g, 5 min) An aliquot of the supernatant is assayed by LC-MS/MS for the amount of parent compound.
# The half-life (t1/2 INVITRO) is determined by the slope of the semilogarithmic plot of the concentration-time profile. The intrinsic clearance (CL_[…]) is calculated by considering the amount of protein in the incubation: CL_[…][μl/min/mg protein]=(ln 2/(half-life [min]*protein content [mg/ml]))*1′000.
# The half-life (t1/2 INVITRO) values of selected compounds in the metabolic stability assay described above are listed in Table 15.
# [2] = Metabolic stability with human hepatocytes; conditions: human hepatocyte suspension, 1 μM, scaled with well stirred model
# Experimental: Assay for the Determination of Metabolic Stability with Human Hepatocytes
# The metabolic degradation of the test compound is assayed in a human hepatocyte suspension. Human hepatocytes (typically cryopreserved) are incubated in an appropriate buffer system (e.g. Dulbecco's modified eagle medium plus 3.5 μg glucagon/500 mL, 2.5 mg insulin/500 mL and 3.75 mg/500 mL hydrocortison) containing 5% species serum. Following a (typically) […] preincubation in an incubator (37° C., 10% CO2), 5 μl of test compound solution (80 μM; from 2 mM stock solution in DMSO diluted 1:25 with medium) are added into 395 μl hepatocyte suspension (cell density in the range 0.25-5*10^6 cells/mL, typically 1*10^6 cells/mL; final concentration of test compound 1 μM, final DMSO concentration […]). The cells are incubated for six hours (incubator, orbital shaker) and samples (25 μl) are taken at 0, 0.5, 1, 2, 4 and 6 hours. Samples are transferred into acetonitrile and pelleted by centrifugation (5 min). The supernatant is transferred to a new 96-deepwell plate, evaporated under nitrogen and resuspended. The decline of parent compound is analyzed by LC-MS/MS.
# The intrinsic clearance CL_[…] is calculated as follows: CL_[…]=Dose/AUC=(C0/CD)/(AUD+clast/k)*1′000/60 (C0: initial concentration in the incubation [μM], CD: cell density of vital cells [10^6 cells/mL], AUD: area under the data [μM*h], clast: concentration of last data point [μM], k: slope of the regression line for parent decline [h^−1])
# The calculated in vitro hepatic intrinsic clearance can be scaled up to the intrinsic in vivo hepatic clearance and used to predict hepatic in vivo blood clearance (CL) by the use of a is liver model (well stirred model): CL_[…]_INVIVO [ml/min/kg]=(CL_[…] [μL/min/10^6 cells]* hepatocellularity[10^6 cells/g liver]*liver factor[g/kg bodyweight])/1′000 CL[ml/min/kg]=CL_[…]_INVIVO [ml/min/kg]*hepatic blood flow [ml/min/kg]/(CL_[…]_INVIVO [ml/min/kg]+hepatic blood flow [ml/min/kg]) Qh[%]=CL[ml/min/kg]/hepatic blood flow[ml/min/kg]) (Hepatocellularity, human: 120*10^6 cells/g liver; lver factor, human: 25.7 g/kg bodyweight; blood flow, human: 21 ml/(min*kg))
# The predicted human hepatic in vivo blood clearance (CL) of selected compounds in the metabolic stability assay described above are listed in Table 16.
# [3] = Drug transport across human CACO-2 cells
# From the text: Assay for Determination of Drug Transport Across Human CACO-2 Cells
# The assay provides information on the potential of a compound to pass the cell membrane, on the extent of oral absorption as well as on whether the compound is actively transported by uptake and/or efflux transporters. For the measurement of permeability across polarized, confluent human cancer colon carcinoma cells 2 (Caco-2) cell monolayers grown on permeable filter supports are used as the in vitro absorption model. Apparent permeability coefficients (PE) of the compounds across the Caco-2 monolayers are measured (pH 7.2, 37° C.) in apical-to-basal (AB) (absorptive) and basal-to-apical (BA) (secretory) transport direction. AB permeability (PEAB) represents drug absorption from the intestine into the blood and BA permeability (PEBA) drug secretion from the blood back into the intestine via both passive permeability as well as active transport mechanisms mediated by efflux and uptake transporters that are expressed on the Caco-2 cells. The compounds are assigned to permeability/absorption classes by comparison of the AB permeabilities with the AB permeabilities of reference compounds with known in vitro permeability and oral absorption in the human. Identical or similar permeabilities in both transport directions indicate passive permeation, vectorial permeability points to additional active transport mechanisms. […] Active transport is concentration-dependently saturable.
# Caco-2 cells (1−2*10^5 cells/cm^2 area) are seeded on filter inserts (Costar transwell polycarbonate or PET filters, […] pore size) and cultured (DMEM) for 10 to 25 days. Compounds are dissolved in appropriate solvent (like DMSO, 1-20 mM stock solutions). Stock solutions are diluted with HTP-4 buffer (128.13 mM NaCl, 5.36 mM KCl, 1 mM MgSO4, 1.8 mM CaCl2, 4.17 mM NaHCO3, 1.19 mM Na2HPO4×7H2O, 0.41 mM NaH2PO4×H2O, 15 mM HEPES, 20 mM glucose, pH 7.2) to prepare the transport solutions (typically […] compound, final DMSO <=0.5%). The transport solution (TL) is applied to the apical or basolateral donor side for measuring A-B or B-A permeability (3 filter replicates), respectively. The receiver side contains HTP-4 buffer supplemented with 2% BSA. Samples are collected at the start and end of experiment from the donor and at various time intervals for up to 2 hours also from the receiver side for concentration measurement by LC-MS/MS or scintillation counting. Sampled receiver volumes are is replaced with fresh receiver solution.
# The apparent permeability coefficients (PEAB and PEBA) and efflux ratios (PEBA/PEAB) of selected compounds in the Caco-2 drug transport assay described above are listed in Table 17.
half-life at 1 nM [1] [h],"Papp A→B at 10 nM ([3]; Caco-2 monolayers, apical-to-basal, pH 7.2, 37° C., read-out: PEAB) [×10⁻⁶ cm/s]","Papp B→A at 10 nM ([3]; Caco-2 monolayers, basal-to-apical, pH 7.2, 37° C., read-out: PEBA) [×10⁻⁶ cm/s]","efflux ratio at 10 nM ([3]; pH 7.2, Caco-2, PEBA/PEAB)",SMILES,t1/2 INVITRO [1] [h],CL (predicted human hepatic in vivo blood clearance) [2] [mL/min/kg]
,,,,CC(C)NC(=O)N1C(=O)N(c2cccc(C(F)(F)F)c2)C2=C(C(=O)CCC2)[C@H]1c1ccc(C#N)cc1S(C)(=O)=O [Example 75.3],>2.17,0
,,,,CS(=O)(=O)c1cc(C#N)ccc1[C@@H]1C2=C(CCCC2=O)N(c2cccc(C(F)(F)F)c2)C(=O)N1C(=O)NCC(F)F [Example 75.7],>2.17,0
> 2.17,,,,CS(=O)(=O)CCNC(=O)N1C(=O)N(c2cccc(C(F)(F)F)c2)C2=C(C(=O)CCC2)C1c1ccc(C#N)cc1 (stereo not shown) [Example 39.19],,0
> 2.17,12.8,76.5,6,N#Cc1ccc(C2C3=C(CCCC3=O)N(c3cccc(C(F)(F)F)c3)C(=O)N2C(=O)NCCO)cc1 (stereo not shown) [Example 39.3],,
